Measurements as given in US20100184807A1, “Methods to inhibit tumor cell growth by using proton pump inhibitors” (Bio-Quant, Inc., priority 2008, published 2010).

Key:
[1] = tested on: JR, HepG2, SR Liquid Leukemia, RS1184 B Lymphoma, and G401 rhabdoid tumor cell lines; experiment: Xenograft nude mouse model, all tumor lines; type: in vivo; conditions: subcutaneous xenografts
Procedure: JR (rhabdomyosarcoma), HepG2 (liver carcinoma), SR Liquid Leukemia (leukemia), RSI 184 B Lymphoma (lymphoma), and G401 rhabdoid (kidney) cancer cells for use in a xenograft mouse model were collected from JR, HepG2, SR Liquid Leukemia, RS1184 B Lymphoma, and G401 rhabdoid tumor cell lines and injected at 5×10^6 cells per nude mouse in a volume of 100 μl subcutaneously. The animals were examined three times weekly to determine the progression of the tumors and determine body weight. Dosing started when tumors reached the ˜75-150 mm^3 size. Animals were randomized and distributed in groups in such a way that mean tumor weights in all groups were within 15% of the mean tumor weight in Group 1 (Control—vehicle group). Upon reaching the ˜75-150 mm^3 target size an effective amount of lansoprazole was administered to the mice in a suspension of PEG300 at a concentration of 100 mg/kg.

NC37 (lymphoma) = experiment: MTT tumor cell growth assay; type: cell-based
Procedure: (§1) In one study, adherent cells were plated approximately 16-24 hours before the day of the experiment in 180 μl growth media. On the day of the experiment, the plated adherent cells were analyzed and counted and suspension cells were plated in 180 μl growth media. 10× lansoprazole compounds and vehicle was prepared. The 10× lansoprazole compounds were prepared by diluting lansoprazole to final concentrations of 100 μM, 30 μM, 10 μM, 3 μM, and 1 μM. A vehicle was prepared by preparing a solution of PBS, equivalent to the volume used for 10 μM lansoprazole wherein the 1× solution constitutes ˜0.06% PBS. 10 μl of the various 10× lansoprazole solutions and the vehicle were added to the cells. The cells were incubated at 37° C., 5% CO2 for 48 hours. The media was then aspirated. The cell suspension was then spun at 1500 RPM for 10 minutes. The media was slowly removed. 200 μl of MTT solution was added to each well with a concentration of 0.863 mg/ml MTT in the growth media. The cells were incubated at 37° C., 5% CO2 for 4 hours and the medium is then aspirated. The plate containing the cell suspension was then spun at 1500 RPM for 10 minutes. The media was slowly removed using a multichannel pipettor. 100 μl of DMSO was then added to each well. The cells were incubated at 37° C., 5% CO2 for 5 minutes and the absorbance was obtained at 560 nm using a Dynex Opsys MR plate reader. The cells used for this procedure were the following cell lines: IGROV1 (ovarian cancer); OVCAR 8 (ovarian cancer); ES-2 (ovarian cancer); CAOV3 (ovarian cancer); OVCAR5 (ovarian cancer); SUDHL4 (lymphoma); RPMI8226 (myeloma); RPMI6666 (Hodgkin's lymphoma); NC37 (lymphoma); GDM-1 (leukemia); MC/CAR (prostate cancer); DU-145 (prostate cancer), J45-01 (leukemia), MOLT3 (leukemia), HUT78, J-gamma-1 (leukemia), MCF7 […], COL0205 (colon cancer), HL60 CLONE 15 (leukemia), T47D (breast cancer), P116 (intestinal cancer), KU812 (leukemia), SW620 (colon cancer), MK92-M1 (lymphoma), MV-4-11 (leukemia), HS578T (breast cancer), HT29 (colon cancer), HCT 116 (colon cancer), CAKI-1 (kidney cancer), A549 (lung cancer), H460 (lung cancer), A3 (colon cancer), MDA-MB231 […], MALME 3M (melanoma), RXF393 (kidney cancer), RS4.11 (leukemia), PC3 (prostate cancer), OVCAR3 (ovarian cancer), MDA-MB435 (melanoma), HUT102 (lymphoma), HL60 (leukemia), CCRF-CEM (leukemia), HUT78 (lymphoma), 786-O (kidney cancer), ACHN (kidney cancer), A498 (kidney cancer), H226 (lung cancer), H522 (lung cancer), HOP92 (lung cancer), SNB 19 (brain cancer), OVCAR4 (ovarian cancer), H9 (lymphoma), UO-31 (kidney cancer), HH (lymphoma), DAUDI (leukemia), LOXIMVI (melanoma), NAMALWA (lymphoma), EKVX (lung cancer), DOHH2 (lymphoma), SNB75 (brain cancer), SKMEL28 (melanoma), SKMEL5 (melanoma), SKMEL2 (melanoma), M14 (melanoma), UACC 257 (melanoma), H332M (lung cancer), KM12 (colon cancer), HCC2998 (colon cancer), G401 (kidney cancer), RS1184 (lymphoma), MC116 (leukemia), MOLT4 (leukemia), JM1 (liver cancer), HOP-62 (lung cancer), HCT-15 (colon cancer), SF-539 (brain cancer), SF295 (brain cancer), ST486 (lymphoma), U251 (brain cancer), and UACC-62 (melanoma).
(§2) Experiments, as described in Example I were conducted with lansoprazole, omeprazole and SCH 28080 at concentrations of 1 μM, 10 μM, and 100 μM. FIGS. 3A-3K show the experimental results when tumor cells from the following cell lines were treated with lansoprazole, omeprazole, and SCH 28080: IGROV1 (FIG. 3A), OVCAR8 (FIG. 3B), ES-2 (FIG. 3C), CAOV3 (FIG. 3D), OVCAR5 (FIG. 3E), SUDHL4 (FIG. 3F), RPMI8226 (FIG. 3G), RPMI6666 (FIG. 3H), NC37 (FIG. 3I), GDM-1 (FIG. 3J), and MC/CAR (FIG. 3K).

GDM-1 (leukemia) = experiment: MTT tumor cell growth assay; type: cell-based
Procedure: as §1, §2

RPMI8226 (myeloma) = experiment: MTT tumor cell growth assay; type: cell-based
Procedure: as §1, §2

SUDHL4 (lymphoma) = experiment: MTT tumor cell growth assay; type: cell-based
Procedure: as §1, §2

OVCAR5 (ovarian cancer) = experiment: MTT tumor cell growth assay; type: cell-based
Procedure: as §1, §2

[2] = tested on: RPMI6666 (Hodgkin's lymphoma); experiment: MTT tumor cell growth assay; type: cell-based
Procedure: as §1, §2

MC/CAR (prostate cancer) = experiment: MTT tumor cell growth assay; type: cell-based
Procedure: as §1, §2

## Cc1c(OCC(F)(F)F)ccnc1C[S+]([O-])c1nc2ccccc2[nH]1 (stereo not shown) [lansoprazole]
[1]; nude mice, 100 mg/kg in PEG300
  life span of the population: extended life span
[1]; 100 mg/kg in PEG300, FIGS. 4A-4C and 5A-5C
  tumor growth in mice: effectively reduced tumor growth
NC37 (lymphoma); NC37 (FIG. 3I), 100 μM
  reducing tumor cell growth: effective in reducing tumor cell growth
NC37 (lymphoma); NC37 cells, lansoprazole 1-100 μM, 48 hours, MTT
  tumor cell growth reduction: significant tumor cell growth reduction
GDM-1 (leukemia); GDM-1 (FIG. 3J), 10 μM
  reducing tumor cell growth: effective in reducing tumor cell growth
GDM-1 (leukemia); GDM-1 cells, lansoprazole 1-100 μM, 48 hours, MTT
  tumor cell growth reduction: significant tumor cell growth reduction
RPMI8226 (myeloma); RPMI8226 (FIG. 3G), 100 μM
  reducing tumor cell growth: effective in reducing tumor cell growth
RPMI8226 (myeloma); RPMI8226 cells, lansoprazole 1-100 μM, 48 hours, MTT
  tumor cell growth reduction: significant tumor cell growth reduction
SUDHL4 (lymphoma); SUDHL4 (FIG. 3F), 100 μM
  reducing tumor cell growth: effective in reducing tumor cell growth
SUDHL4 (lymphoma); SUDHL4 cells, lansoprazole 1-100 μM, 48 hours, MTT
  tumor cell growth reduction: significant tumor cell growth reduction
OVCAR5 (ovarian cancer); OVCAR5 (FIG. 3E), 100 μM
  reducing tumor cell growth: effective in reducing tumor cell growth
OVCAR5 (ovarian cancer); OVCAR5 cells, lansoprazole 1-100 μM, 48 hours, MTT
  tumor cell growth reduction: significant tumor cell growth reduction
[2]; RPMI6666 (FIG. 3H), 100 μM
  reducing tumor cell growth: effective in reducing tumor cell growth
[2]; RPMI6666 cells, lansoprazole 1-100 μM, 48 hours, MTT
  tumor cell growth reduction: significant tumor cell growth reduction
MC/CAR (prostate cancer); MC/CAR (FIG. 3K), 100 μM
  reducing tumor cell growth: effective in reducing tumor cell growth
MC/CAR (prostate cancer); MC/CAR cells, lansoprazole 1-100 μM, 48 hours, MTT
  tumor cell growth reduction: significant tumor cell growth reduction
